What was measured:
[1] = test system: HCT-116 human colon cancer xenografts; test: In vivo anti-tumor test, HCT-116 subcutaneous flank xenografts; set-up: species or system nu/nu female mice; details: 10 mg/kg i.p. repeated, 11 treated animals, day 10, from repeated i.p. injection
Experimental: In Vivo Testing for Anti-Tumor Activity
Subcutaneous flank xenografts of the human colon cancer cell line, HCT-116 in nu/nu female mice (Harlan) were used to study the anti-tumor effects of Compound 1 in vivo. All animal experiments complied with institutional animal care guidelines. 10^7 HCT-116 cells (˜0.1 ml packed cells) were xenografted from culture in DMEM supplemented with 10% FBS into […]. Treatment began when measurable tumors developed about 3 days after inoculation. Compound 1 (10 mg/kg) was diluted into 40 μl DMSO and treated intraperitoneally (i.p.) 11 animals received JMM-III-231 10 mg/kg, i.p., at days indicated by arrows, and 11 received DMSO control. Tumors were measured on days indicated. […] Error bars represent standard error of the mean.

[2] = target: rat liver acyl-CoA synthetase; details: Tomoda et al. 1987; Omura et al. 1986; read-out: 50% inhibition of rat liver acyl-CoA synthetase; cited from earlier work
Raji cells = details: Tomoda et al. 1991; cited from earlier work
viral HIV protease = viral HIV protease (Human immunodeficiency virus type 1 group M subtype B, UniProt P04585); details: Moelling et al. 1990; cited from earlier work

Compound: C=CCNC(=O)C1C(=C)C(=O)O[C@H]1CCCCCCCC (mixture of isomers) [Compound 1, (±)-α-Methylene-γ-butyrolactone-5-octyl-4-allyl amide]
- Death of treated mice in xenograft study [1]: One Compound 1 treated mouse died on day 10

Compound: CCCC=CCC=CC=CC=NN=NO [Triacsin C, 1-hydroxy-3-(E, E, E-2′,4′,7′-undecatrienylidine) triazene]
- IC50 [2]: 8.7 µM
- concentration causing growth inhibition in Raji cells (Raji cells): 1.0 µM

Compound: C/C=C/C/C=C/CCC(=O)[C@H]1O[C@H]1C(N)=O [cerulenin, (2S,3R)-2,3-epoxy-4-oxo-7,10 dodecadienoyl amide]
- concentration for inhibition of viral HIV protease (viral HIV protease): 5 mg/mL

From patent US20060241177A1, “Novel compounds, pharmaceutical compositions containing same, and methods of use for same” (priority 2002, published 2006)
